Experimental findings from patent US5214067A, “Fungicidal compositions and method” (Merck & Co., Inc., priority 1990, dated 1993) are described below.

The test system of one assay is Candida albicans MY 1055. The assay is described as follows: Minimum inhibitory concentration (broth dilution) against Candida albicans MY 1055. In kind it is cell-based. The conditions noted are these: MY1055, C. albicans MY 1055, YNB/G, 37° C., 250 rpm, 17 hr. As to the method: 11-(3-hydroxymethyl-4-oxo-2oxetanyl)-7-methyl-2,4-undecadienoic acid (β-lactone compound), was solubilized in 100 percent dimethylsulfoxide (DMSO). Twofold dilutions were made with DMSO to obtain final drug concentrations in the broth dilution assay tubes ranging from […].
The Candida albicans, MY 1055 yeast culture, maintained in yeast nitrogen base/glucose (1/2 percent), YNB/G, was transferred to fresh medium and incubated 7 hours at 37° with shaking at 250 rpm. After incubation, each culture was diluted to A600 =0.0004 U/ml which was previously determined to be equal to 3000 cfu/ml (colony forming units per milliliter).
1 milliliter of YNB/G inoculated with yeast culture was added to sterile test tubes. The tubes were incubated at 250 rpm, 37° C. for 17 hr. The minimum inhibitory concentration (MIC) was recorded as the lowest concentration of drug […].
In a similar manner, the pyranyl ester was solubilized in dimethyl sulfoxide and dilution assay tubes from […] prepared. […] The MIC against C. C. albicans MY 1055 was determined to be 2 μg/ml.
Background: Broth dilution looks for growth in wells or tubes with falling amounts of substance.

For a further assay, the system named is C. albicans. Briefly: Synergistic and fungicidal effect: viable cell count (CFU/ml) of exponential phase C. albicans culture over time, drugs alone and in combination. In kind it is cell-based, Candida albicans. The conditions noted are these: β-lactone 3.1 μg/ml, pyranyl glycine ester 2 μg/ml, alone or together. The method, then: Synergistic and fungicidal effects were determined by treating exponential phase C. albicans culture with β-Lactone and pyranyl glycine ester at respective MIC level alone and in combination. Exponential phase cultures were prepared by diluting an overnight culture 1:50 or 1:1000 YNB/G. After incubating the diluted cells 7 or 17 hrs. at 37° C., the exponential phase cells were diluted in YNB/G to A600 =0.004u/ml to obtain 3000 cfu/ml.
10 microliters (μl) of β-lactone compound or pyranyl glycine ester compound prepared in DMSO was added to 1 ml of diluted exponential phase cells. The tubes were incubated at 37° C. at 250 rpm for about 24 hours. Periodically, aliquots were diluted in 0.9% saline and plated on Sabouraud dextrose agar plates to determine the number of cfu/ml.

Where [1] appears, read: time 2 hours, no drug 4.45 × 10^3.
[2] abbreviates: time 4.5 hours, no drug 1.75 × 10^4.
Setting [3] is: time 7.5 hours, no drug 1.10 × 10^5.
The mark [4] stands for this setting: time 16.0 hours, no drug 5.35 × 10^6.
Where [5] appears, read: time 20.5 hours, no drug 5.30 × 10^7.
Setting [6] is: time 24.0 hours, no drug 7.65 × 10^7.

Molecules are shown by their SMILES. Values after ≈ are worked out from the molar mass of the structure shown.

For `CCCC=CC=CC=C(C)C1OCC(C)C(OC)C1OC(=O)CN` (stereo not shown) [Pyranyl Glycine Ester Compound, (2,3,4,5)-tetrahydro-4-methoxy-5-methyl-2-(1-methyl-1,3,5-nonatrienyl)-2-pyran-3-yl-glycine], in the assay with Candida albicans MY 1055, the MIC stood at 2 µg/mL (≈ 5.93 µM). Also, the “Fungal Growth (CFU/ML)” value in the assay on C. albicans (time 0 hours (start), 37° C.) is given as 2.70 × 10^3 CFU/ML; in the assay with C. albicans (setting [1]) it was 6.05 × 10^3 CFU/ML; in the assay with C. albicans (setting [2]), 9.60 × 10^3 CFU/ML; in the assay on C. albicans (setting [3]), 1.40 × 10^4 CFU/ML; in the assay with C. albicans (setting [4]), 1.00 × 10^5 CFU/ML; with C. albicans (setting [5]) it was 1.02 × 10^6 CFU/ML. In addition, the “Fungal Growth (CFU/ML)” value with C. albicans (setting [6]) is 1.37 × 10^6 CFU/ML.
In the assay with Candida albicans MY 1055, `CC(=CC(=O)O)C=C(C)CC(C)CCCCC1OC(=O)C1CO` (stereo not drawn) [β-Lactone Compound] came in with an MIC of 3.1 µg/mL (≈ 9.56 µM). Also, the “Fungal Growth (CFU/ML)” value with C. albicans (time 0 hours (start), 37° C.) is listed as 2.70 × 10^3 CFU/ML; in the assay with C. albicans (setting [1]), 5.95 × 10^3 CFU/ML; in the assay with C. albicans (setting [2]) it was 4.10 × 10^3 CFU/ML; in the assay on C. albicans (setting [3]), 4.55 × 10^3 CFU/ML; in the assay on C. albicans (setting [4]), 1.70 × 10^3 CFU/ML; with C. albicans (setting [5]), 1.50 × 10^3 CFU/ML. In addition, the “Fungal Growth (CFU/ML)” value in the assay with C. albicans (setting [6]) was 1.50 × 10^3 CFU/ML.

By MIC is commonly meant the least concentration at which growth counts as inhibited. A high value points to weaker potency.
